A word on the pIC50: it is the IC50 on a negative log10 scale, so that one unit is a factor of ten.

This is an account of results in ChEMBL document CHEMBL1944561, “Discovery and SAR exploration of a novel series of imidazo[4,5-b]pyrazin-2-ones as potent and selective mTOR kinase inhibitors” (Bioorg Med Chem Lett, 2011).

Series [1] concerns the target T1, Serine/threonine-protein kinase mTOR (Homo sapiens, UniProt P42345). Nature of the series: Inhibition of mTOR.
The target of series [2] is T1, Serine/threonine-protein kinase mTOR. Nature of the series: Inhibition of mTOR-mediated S6 phosphorylation in human PC3 cells. The class given is cell-based, PC-3.
The test system of the next series is PC-3. Nature of the series: Antiproliferative activity against human PC3 cells.
Series [3] has as its target T1, Serine/threonine-protein kinase mTOR. Nature of the series: Inhibition of mTOR-mediated Akt phosphorylation in human PC3 cells. Format: cell-based, PC-3.
In series [4] the target is Phosphatidylinositol 4,5-bisphosphate 3-kinase catalytic subunit alpha isoform (Homo sapiens, UniProt P42336). Nature of the series: Inhibition of PI3Kalpha.
Series [5] in a line: Metabolic stability in rat hepatocytes assessed as compound remaining after 60 mins. The conditions noted are these: read-out: Stability. The class given is ADME, cell-based, Hepatocyte.

pIC50: −log10 of the molar value.

Sequence of Phosphatidylinositol 4,5-bisphosphate 3-kinase catalytic subunit alpha isoform (P42336 whole entry, canonical isoform): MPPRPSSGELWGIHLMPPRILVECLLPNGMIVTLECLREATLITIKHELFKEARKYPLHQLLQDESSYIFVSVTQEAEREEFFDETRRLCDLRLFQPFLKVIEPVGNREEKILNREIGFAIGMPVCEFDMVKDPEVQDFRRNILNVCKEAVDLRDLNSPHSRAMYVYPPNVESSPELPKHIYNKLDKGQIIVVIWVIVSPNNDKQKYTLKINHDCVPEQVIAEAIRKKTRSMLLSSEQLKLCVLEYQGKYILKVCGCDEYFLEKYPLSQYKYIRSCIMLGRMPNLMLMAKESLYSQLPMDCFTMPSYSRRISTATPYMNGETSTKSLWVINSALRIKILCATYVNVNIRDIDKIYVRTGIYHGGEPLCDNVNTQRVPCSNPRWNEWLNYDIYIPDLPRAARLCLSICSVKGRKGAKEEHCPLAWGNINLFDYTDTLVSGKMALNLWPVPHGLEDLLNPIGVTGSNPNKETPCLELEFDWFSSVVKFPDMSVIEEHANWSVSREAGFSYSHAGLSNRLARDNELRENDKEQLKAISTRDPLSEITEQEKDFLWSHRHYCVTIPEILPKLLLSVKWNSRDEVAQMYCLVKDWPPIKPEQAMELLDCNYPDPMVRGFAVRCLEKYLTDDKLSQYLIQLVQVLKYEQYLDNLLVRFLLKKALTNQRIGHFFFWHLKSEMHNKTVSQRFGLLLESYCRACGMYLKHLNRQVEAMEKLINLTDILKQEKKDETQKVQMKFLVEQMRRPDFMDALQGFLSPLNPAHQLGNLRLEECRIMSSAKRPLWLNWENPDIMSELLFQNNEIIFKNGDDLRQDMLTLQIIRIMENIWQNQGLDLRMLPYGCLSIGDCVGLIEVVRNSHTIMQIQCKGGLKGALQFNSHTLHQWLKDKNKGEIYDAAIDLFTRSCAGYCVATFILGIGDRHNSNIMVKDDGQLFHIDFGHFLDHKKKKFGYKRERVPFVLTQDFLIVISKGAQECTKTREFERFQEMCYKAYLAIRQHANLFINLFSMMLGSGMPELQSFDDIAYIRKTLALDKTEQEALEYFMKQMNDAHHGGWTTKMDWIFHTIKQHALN

In series [1], `O=c1[nH]c2ncc(-c3ccc(O)cc3)nc2n1CC1CCOCC1` showed a pIC50 of 6.47.

Take `O=c1[nH]c2ncc(-c3ccc4[nH]ccc4c3)nc2n1CC1CCOCC1`: the pIC50 is 6.64 in series [2]; 6.22 in the series with PC-3; 7.68 in series [1]; 7.30 in series [3]; < 4.52 in series [4]. `NC(=O)c1ccc(-c2cnc3[nH]c(=O)n(CC4CCCCC4)c3n2)cc1`: the pIC50 in series [1] was 7.15; in series [4] it was < 4.52. As for `O=c1[nH]c2ncc(-c3ccc(CO)cc3)nc2n1CC1CCCCC1`, in series [5], the remaining at 1 h amounted to 8%. Further, the pIC50 is 7.22 in series [1] and < 4.52 in series [4]. With `CO[C@H]1C[C@@H]2CC[C@@H](C)[C@@](O)(O2)C(=O)C(=O)N2CCCC[C@H]2C(=O)O[C@H]([C@H](C)C[C@@H]2CC[C@@H](O)[C@H](OC)C2)CC(=O)[C@H](C)/C=C(\C)[C@@H](O)[C@@H](OC)C(=O)[C@H](C)C[C@H](C)/C=C/C=C/C=C/1C` [SIROLIMUS], in the series on PC-3, the pIC50 is > 8.00. In series [1], `Nc1nc2cc(-c3cnc4[nH]c(=O)n(CC5CCOCC5)c4n3)ccc2[nH]1` had a pIC50 of 8.00.

Regarding `O=c1[nH]c2ncc(-c3ccc4[nH]ncc4c3)nc2n1CC1CCCCC1`, the pIC50 was 6.20 in series [2], 5.67 with PC-3, 6.72 in series [1] and 4.90 in series [4]. In series [1], `O=c1[nH]c2ncc(-c3ccc(O)cc3)nc2n1C1CCCCC1` had a negative logarithm of the IC50 (pIC50) of 5.54. Regarding `NCc1ccc(-c2cnc3[nH]c(=O)n(CC4CCCCC4)c3n2)cc1`, the pIC50 in series [1] is 5.08. The same measure, in the same setting: for `O=c1[nH]c2ncc(-c3ccc(-c4nn[nH]n4)cc3)nc2n1CC1CCCCC1` the value was 5.80. With `O=c1[nH]c2ncc(-c3ccc4cc[nH]c4c3)nc2n1CC1CCCCC1`, the negative-log IC50 (pIC50) in series [1] was 5.46. In the case of `CNc1nc2cc(-c3cnc4[nH]c(=O)n(CC5CCOCC5)c4n3)ccc2[nH]1`, the pIC50 in series [2] was < 5.30; in the series with PC-3 it was < 5.30; in series [1], 8.22; in series [4], < 4.52. The molecule `O=c1[nH]c2ncc(-c3ccc(-c4ncc[nH]4)cc3)nc2n1CC1CCOCC1` showed a pIC50 in the series on PC-3 of 6.04. Regarding `NC(=O)[C@H]1CC[C@H](n2c(=O)[nH]c3ncc(-c4ccc(O)cc4)nc32)CC1`, the pIC50 was < 5.30 in series [2], < 5.30 with PC-3, 6.75 in series [1] and < 5.30 in series [3].

Consider `CNC(=O)c1ccc(-c2cnc3[nH]c(=O)n(CC4CCCCC4)c3n2)cc1`, for which the negative logarithm of the IC50 (pIC50) in series [1] was 6.92. For `Nc1nc2ccc(-c3cnc4[nH]c(=O)n(CC5CCCCC5)c4n3)cc2[nH]1`, the negative-log IC50 (pIC50) in series [2] is 6.70; with PC-3 it was 6.25; in series [1], 8.70; in series [3], 7.04. `CC(C)NC(=O)c1ccc(-c2cnc3[nH]c(=O)n(CC4CCCCC4)c3n2)cc1` gave a pIC50 in series [1] of 5.05. Still for that read-out and setting: with `O=c1[nH]c2ncc(-c3ccc(O)cc3)nc2n1CC1CCCCC1` the figure was 6.11. Same read-out and setting: for `CN1CCC(Cn2c(=O)[nH]c3ncc(-c4ccc(O)cc4)nc32)CC1` the value was 4.85; for `O=c1[nH]c2ncc(-c3ccc(-n4ccnn4)cc3)nc2n1CC1CCCCC1`, < 5.00; for `O=c1[nH]c2ncc(-c3cnc4[nH]cnc4c3)nc2n1CC1CCOCC1`, 6.41. Same read-out and setting: for `O=c1[nH]c2ncc(-c3ccc(-c4nc[nH]n4)cc3)nc2n1CC1CCCCC1` the value was 8.05. The molecule `CC(C)n1c(=O)[nH]c2ncc(-c3ccc(O)cc3)nc21` showed a pIC50 in series [1] of 5.98. The same measure, in the same setting: for `O=c1[nH]c2ncc(-c3ccccc3)nc2n1CC1CCCCC1` the value was < 5.00. `COC(=O)c1ccc(-c2cnc3[nH]c(=O)n(CC4CCCCC4)c3n2)cc1`: in series [1], the pIC50 was < 5.00.

On to `O=C(O)c1ccc(-c2cnc3[nH]c(=O)n(CC4CCCCC4)c3n2)cc1`, for which the negative-log IC50 (pIC50) in series [1] was 6.89; in series [4], 4.63. As for `O=c1[nH]c2ncc(-c3ccc4[nH]cnc4c3)nc2n1CC1CCOCC1`, the negative logarithm of the IC50 (pIC50) in series [1] was 7.52. On the same count and under the same terms, with `O=c1[nH]c2ncc(-c3ccc(-c4cnco4)cc3)nc2n1CC1CCCCC1` the figure was 5.87. Molecule `O=c1[nH]c2ncc(-c3ccc(O)cc3)nc2n1Cc1cccc(O)c1` showed a negative-log IC50 (pIC50) in series [1] of 5.98. Same read-out and setting: with `O=c1[nH]c2ncc(-c3ccc(O)cc3)nc2n1C1CCOCC1` the figure was 5.78; with `COCCn1c(=O)[nH]c2ncc(-c3ccc(O)cc3)nc21`, 5.62. Consider `NC(=O)[C@H]1CC[C@@H](n2c(=O)[nH]c3ncc(-c4ccc(O)cc4)nc32)CC1`, for which the pIC50 in series [2] is < 5.30; with PC-3, < 5.30; in series [1], 6.75; in series [3], < 5.30.

Take `O=c1[nH]c2ncc(-c3ccc4[nH]ccc4c3)nc2n1CC1CCCCC1`: the negative logarithm of the IC50 (pIC50) in series [1] was 7.20; in series [4], < 4.52. Take `O=c1[nH]c2ncc(-c3ccc(-c4cn[nH]c4)cc3)nc2n1CC1CCCCC1`: the pIC50 in series [1] was 6.92; in series [4] it was < 4.52. Molecule `CC(C)Cn1c(=O)[nH]c2ncc(-c3ccc(O)cc3)nc21` showed a pIC50 in series [1] of 5.99.
